Measured values from US20240238305A1, “FORMULATIONS OF 3-((3-(4-(2-(ISOBUTYLSULFONYL)PHENOXY)-3-(TRIFLUOROMETHYL)PHENYL)-1,2,4-OXADIAZOL-5-YL)METHYL)-5,5-DIMETHYL-1-(2-MORPHOLINOETHYL)IMIDAZOLIDINE-2,4-DIONE” (Novartis AG, priority 2021, published 2024).
≈ marks a conversion by molar mass, not a printed value. Where “and” joins values, the source holds several entries; their conditions need not be identical. Equal entries are not always repeated.

How the values were obtained:
[1] = test system: rat meibum; assay: In vivo measurement of lowered meibum melting temperature; design: species or system Sprague Dawley rats; settings: rats
Experimental: The lowering of rat meibum melting temperature by Compound 1 was measured in naive Sprague Dawley rats. The test animals were administered either vehicle, or a suspension of 1% of Compound 1, as eye drops twice a day for fourteen days. The rat meibum was collected after administration of the compounds and analyzed by differential scanning calorimetry to measure the melting point. The lowering of meibum melting point in rats administered Compound 1 was compared to the vehicle.
Melting properties of meibum were obtained using differential scanning calorimetry thermograms, recorded on a TA Discovery Q5000 (ThermoAnalytical). Samples were sealed in standard 40 μl aluminum pans and subjected to a heat-cool-heat cycle with melting temperatures being recorded on the second heating ramp. The samples were first heated to 150° C. at 30K/min then cooled −30° C. at 30K/min. Next, the sample was heated to 75° C. with an underlying heating rate of 2K/min, a period of modulation of 60 seconds and a temperature amplitude of modulation of 1° C. Dry N2 gas, at a flow rate of 50 mL/min was used to purge the DSC equipment during the measurement. Onset of melting and peak temperatures were recorded with peak temperature quoted as the melting point.
Results from the assay are shown Table 3 and in FIG. 4. Results were analyzed using an unpaired t test with Welch's correction.

[2] = Stability of Compound 1 on sterilization (steam, gamma irradiation); assay type: physicochemical
Experimental: The stability of Compound 1 when sterilized by steam (autoclaving) was assessed. […] Gamma irradiation was then assessed as an alternative sterilization technique. Samples of Compound 1 were irradiated with 10-20 kGy or 20-30 kGy of gamma irradiation.

[3] = Solubility of Compound 1 in aqueous buffers; assay type: physicochemical
Excerpt: 3-((3-(4-(2-(isobutylsulfonyl)phenoxy)-3-(trifluoromethyl)phenyl)-1,2,4-oxadiazol-5-yl)methyl)-5,5-dimethyl-1-(2-morpholinoethyl)imidazolidine-2,4-dione (“Compound 1”) is an LXR agonist having biological activity that makes the compound useful for treating ocular diseases such as MGD (see, e.g., Example 3). However, its physical properties make formulating Compound 1 for therapeutic use (e.g., in human subjects) difficult. Compound 1 is poorly water soluble, making it difficult to formulate compositions of Compound 1 with desired concentrations of Compound 1 for therapeutic use. […] Moreover, Compound 1 has a melting temperature of only 118° C., which makes heat sterilization of Compound 1 difficult. In spite of these challenges, formulations of Compound 1 which can be used, for example, in the treatment of ocular diseases and disorders such as dry eye disease and MGD, have been developed.

[4] = Solubility of Compound 1 in different excipients; assay type: physicochemical
Experimental: The solubility of Compound 1 in different excipients was assessed.

[5] = Stability of Compound 1 in different excipients, 3 months; assay type: physicochemical; settings: for HPLC (% Remaining): initial purity 99.19%
Experimental: The stability of Compound 1 in different excipients was assessed.

[6] = Wet ball milling: particle size and soluble fraction; assay type: physicochemical; settings: aqueous with cosolvent or surfactant or cyclodextrin, thermodynamic from solid
Experimental: The effect of wet ball milling on Compound 1 particles size and solubility in Kolliphor® EL, Kolliphor® RH40, and tyloxopol s was assessed. […] Kolliphor® RH 40 appeared to be best wetting agent, with Kolliphor® EL also performing well.

[7] = 0.5% Kolliphor ® EL/0.5% Carbopol ® 974P, 5° C.
[8] = 0.5% Kolliphor ® EL/0.5% Carbopol ® 974P, 25° C.
[9] = 0.5% Kolliphor ® EL/0.5% Carbopol ® 974P, 40° C.
[10] = 0.5% Kolliphor ® EL/0.5% HEC, 5° C.
[11] = 0.5% Kolliphor ® EL/0.5% HEC, 25° C.
[12] = 0.5% Kolliphor ® EL/0.5% HEC, 40° C.
[13] = 0.5% Kolliphor ® RH40/0.5% Carbopol ® 974P, 5° C.
[14] = 0.5% Kolliphor ® RH40/0.5% Carbopol ® 974P, 25° C.
[15] = 0.5% Kolliphor ® RH40/0.5% Carbopol ® 974P, 40° C.
[16] = 0.5% Kolliphor ® RH40/0.5% HEC, 5° C.
[17] = 0.5% Kolliphor ® RH40/0.5% HEC, 25° C.
[18] = 0.5% Kolliphor ® RH40/0.5% HEC, 40° C.

Compound: CC(C)CS(=O)(=O)c1ccccc1Oc1ccc(-c2noc(CN3C(=O)N(CCN4CCOCC4)C(C)(C)C3=O)n2)cc1C(F)(F)F [Compound 1, 3-((3-(4-(2-(isobutylsulfonyl)phenoxy)-3-(trifluoromethyl)phenyl)-1,2,4-oxadiazol-5-yl)methyl)-5,5-dimethyl-1-(2-morpholinoethyl)imidazolidine-2,4-dione]
- Mean ± SEM meibum melting temperature ([1]; 1% suspension eye drops twice a day for fourteen days, DSC peak temperature, in °C): 28.08 ± 0.2945
- Change of Tm ([1]; versus vehicle, 1% suspension twice a day, fourteen days, P value <0.0001): −2.181 ± 0.3731
- HPLC Assay (% Remaining) Average ([2]; 10-20 kGy, samples 7-9): 98.23 ± 0.01%
- HPLC Assay (% Remaining) Average ([2]; 20-30 kGy, samples 10-12): 98.14 ± 0.03%
- degradation of Compound 1 by HPLC ([2]; gamma irradiated, 10-20 kGy or 20-30 kGy): less than 0.5%
- Appearance ([2]; gamma irradiation 10-20 kGy): White powder
- HPLC Assay (% Remaining) ([2]; gamma irradiation 10-20 kGy): 98.23% and 98.24% and 98.22%
- XRPD (2-Theta) ([2]; gamma irradiation 10-20 kGy): Form A
- Appearance ([2]; gamma irradiation 20-30 kGy): White powder
- HPLC Assay (% Remaining) ([2]; gamma irradiation 20-30 kGy): 98.17% and 98.13% and 98.11%
- XRPD (2-Theta) ([2]; gamma irradiation 20-30 kGy): Form A
- Appearance ([2]; non-irradiated control): White powder
- HPLC Assay (% Remaining) ([2]; non-irradiated control): 98.51% and 98.48% and 98.44% and 98.46% and 98.49% and 98.50%
- XRPD (2-Theta) ([2]; non-irradiated control): Form A
- HPLC Assay (% Remaining) Average ([2]; non-irradiated control, samples 1-6): 98.48 ± 0.03%
- degradation on steam sterilization ([2]; steam (autoclaving), data not shown): Significant degradation
- solubility ([3]; 10 mM acetate buffer, aqueous buffer, 10 mM acetate, pH 4, read-out: solubility): 25 µg/mL (≈ 36.8 µM)
- solubility ([3]; 10 mM acetate buffer, aqueous buffer, 10 mM acetate, pH 5, read-out: solubility): 1 µg/mL (≈ 1.47 µM)
- solubility ([3]; 10 mM phosphate buffer at pH 7): limit of quantification
- Physical form ([4]; 0.5% Tween ® 80 pH 7): No change, Form A
- Physical form ([4]; 0.5% Tyloxapol pH 7): No change, Form A
- Physical form ([4]; 5% HP-β-CD pH 5): No change, Form A
- Physical form ([4]; 5% HP-β-CD pH 6): No change, Form A
- Physical form ([4]; 5% HP-β-CD pH 7): No change, Form A
- Physical form ([4]; 5% HP-γ-CD pH 7): No change, Form A
- Physical form ([4]; 5% Kolliphor ® EL pH 5): No change, Form A
- Physical form ([4]; 5% Kolliphor ® EL pH 6): No change, Form A
- Physical form ([4]; 5% Kolliphor ® EL pH 7): No change, Form A
- Physical form ([4]; 5% PEG400 pH 7): No change, Form A
- Physical form ([4]; 5% PVP pH 7): No change, Form A
- Compound 1 solubility ([4]; 5% Polyvinylpyrrolidone (PVP) pH 7, measured pH 6.97): <LOQ
- Physical form ([4]; 10% transcutol pH 7): No change, Form A
- Compound 1 solubility ([4]; 10% transcutol pH 7, measured pH 6.99): <LOQ
- solubility ([4]; aqueous with cosolvent or surfactant or cyclodextrin, thermodynamic from solid, 0.5% Tween ® 80 pH 7, measured pH 7.1): 78 µg/mL (≈ 115 µM)
- solubility ([4]; aqueous with cosolvent or surfactant or cyclodextrin, thermodynamic from solid, 0.5% Tyloxapol pH 7): 34 µg/mL (≈ 50 µM)
- solubility ([4]; aqueous with cosolvent or surfactant or cyclodextrin, thermodynamic from solid, 5% HP-β-CD pH 5, measured pH 5.28): 180 µg/mL (≈ 265 µM)
- solubility ([4]; aqueous with cosolvent or surfactant or cyclodextrin, thermodynamic from solid, 5% HP-β-CD pH 6, measured pH 6.13): 70 µg/mL (≈ 103 µM)
- solubility ([4]; aqueous with cosolvent or surfactant or cyclodextrin, thermodynamic from solid, 5% HP-β-CD pH 7, measured pH 7.03): 50 µg/mL (≈ 73.6 µM)
- solubility ([4]; aqueous with cosolvent or surfactant or cyclodextrin, thermodynamic from solid, 5% HP-γ-CD pH 7, measured pH 6.9): 225 µg/mL (≈ 331 µM)
- solubility ([4]; aqueous with cosolvent or surfactant or cyclodextrin, 5% Kolliphor ® EL pH 5, measured pH 5.34): 1010 µg/mL (≈ 1490 µM)
- solubility ([4]; aqueous with cosolvent or surfactant or cyclodextrin, 5% Kolliphor ® EL pH 6, measured pH 6.16): 740 µg/mL (≈ 1090 µM)
- solubility ([4]; aqueous with cosolvent or surfactant or cyclodextrin, 5% Kolliphor ® EL pH 7, measured pH 7.01): 690 µg/mL (≈ 1020 µM)
- solubility ([4]; aqueous with cosolvent or surfactant or cyclodextrin, 5% Kolliphor ® RH40, measured pH 6.91): 443 µg/mL (≈ 652 µM)
- solubility ([4]; pH 7.1, aqueous with cosolvent or surfactant or cyclodextrin, 5% PEG400 pH 7, measured pH 7.10): 3 µg/mL (≈ 4.41 µM)
- XRPD (2-Theta) ([5]; 0.5% Carbopol ® 974P, 5° C.): Form
- HPLC (% Remaining) ([5]; 0.5% Carbopol ® 974P, 5° C.): 99.19%
- XRPD (2-Theta) ([5]; 0.5% Carbopol ® 974P, 25° C.): Form
- HPLC (% Remaining) ([5]; 0.5% Carbopol ® 974P, 25° C.): 99.16%
- XRPD (2-Theta) ([5]; 0.5% Carbopol ® 974P, 40° C.): Form
- HPLC (% Remaining) ([5]; 0.5% Carbopol ® 974P, 40° C.): 99.14%
- XRPD (2-Theta) ([5]; 0.5% HEC, 5° C.): Form
- HPLC (% Remaining) ([5]; 0.5% HEC, 5° C.): 99.18%
- XRPD (2-Theta) ([5]; 0.5% HEC, 25° C.): Form
- HPLC (% Remaining) ([5]; 0.5% HEC, 25° C.): 99.20%
- XRPD (2-Theta) ([5]; 0.5% HEC, 40° C.): Form
- HPLC (% Remaining) ([5]; 0.5% HEC, 40° C.): 99.17%
- XRPD (2-Theta) ([5]; 0.5% Kolliphor ® EL, 5° C.): Form
- HPLC (% Remaining) ([5]; 0.5% Kolliphor ® EL, 5° C.): 99.18%
- XRPD (2-Theta) ([5]; 0.5% Kolliphor ® EL, 25° C.): Form
- HPLC (% Remaining) ([5]; 0.5% Kolliphor ® EL, 25° C.): 99.18%
- XRPD (2-Theta) ([5]; 0.5% Kolliphor ® EL, 40° C.): Form
- HPLC (% Remaining) ([5]; 0.5% Kolliphor ® EL, 40° C.): 99.00%
- XRPD (2-Theta) [5, 7]: Form
- HPLC (% Remaining) [5, 7]: 99.18%
- XRPD (2-Theta) [5, 8]: Form
- HPLC (% Remaining) [5, 8]: 99.02%
- XRPD (2-Theta) [5, 9]: Form
- HPLC (% Remaining) [5, 9]: 97.89%
- XRPD (2-Theta) [5, 10]: Form
- HPLC (% Remaining) [5, 10]: 99.19%
- XRPD (2-Theta) [5, 11]: Form
- HPLC (% Remaining) [5, 11]: 99.02%
- XRPD (2-Theta) [5, 12]: Form
- HPLC (% Remaining) [5, 12]: 98.94%
- XRPD (2-Theta) ([5]; 0.5% Kolliphor ® RH40, 5° C.): Form
- HPLC (% Remaining) ([5]; 0.5% Kolliphor ® RH40, 5° C.): 99.18%
- XRPD (2-Theta) ([5]; 0.5% Kolliphor ® RH40, 25° C.): Form
- HPLC (% Remaining) ([5]; 0.5% Kolliphor ® RH40, 25° C.): 99.18%
- XRPD (2-Theta) ([5]; 0.5% Kolliphor ® RH40, 40° C.): Form
- HPLC (% Remaining) ([5]; 0.5% Kolliphor ® RH40, 40° C.): 99.17%
- XRPD (2-Theta) [5, 13]: Form
- HPLC (% Remaining) [5, 13]: 99.18%
- XRPD (2-Theta) [5, 14]: Form
- HPLC (% Remaining) [5, 14]: 99.17%
- XRPD (2-Theta) [5, 15]: Form
- HPLC (% Remaining) [5, 15]: 98.87%
- XRPD (2-Theta) [5, 16]: Form
- HPLC (% Remaining) [5, 16]: 99.19%
- XRPD (2-Theta) [5, 17]: Form
- HPLC (% Remaining) [5, 17]: 99.18%
- XRPD (2-Theta) [5, 18]: Form
- HPLC (% Remaining) [5, 18]: 99.18%
- solubility at 24 h ([6]; 0.25% Tyloxapol @ 24 hr, 3 mm beads): 15 µg/mL (≈ 22.1 µM)
- solubility at 24 h ([6]; 0.5% Tyloxapol @ 24 hr, 3 mm beads): 76 µg/mL (≈ 112 µM)
- solubility at 24 h ([6]; 1% Kolliphor ® EL @ 24 hr, 3 mm beads): 270 µg/mL (≈ 397 µM)
- solubility at 24 h ([6]; 1% Kolliphor ® RH-40 @ 24 hr, 3 mm beads): 344 µg/mL (≈ 506 µM)
- solubility at 24 h ([6]; 2% Kolliphor ® EL @ 24 hr, 3 mm beads): 528 µg/mL (≈ 777 µM)
- solubility at 24 h ([6]; 2% Kolliphor ® RH40, @ 24 hr, 1 mm beads): 650 µg/mL (≈ 956 µM)
- solubility at 24 h ([6]; 2% Kolliphor ® RH-40 @ 24 hr, 3 mm beads): 669 µg/mL (≈ 984 µM)
- solubility at 24 h ([6]; 4% Kolliphor ® RH40 @ 24 hr, 1 mm beads): 1200 µg/mL (≈ 1760 µM)
